Assay results as given in PMC10322960 (European Journal of Drug Metabolism and Pharmacokinetics, 2023).

Legend:
Format in all cases: in vitro ADME
OATP1B3 = molecular target: T1, OATP1B3 (Homo sapiens, UniProt Q9NPD5); assay: OATP1B3 uptake substrate assay
T1 sequence (Q9NPD5 1-702): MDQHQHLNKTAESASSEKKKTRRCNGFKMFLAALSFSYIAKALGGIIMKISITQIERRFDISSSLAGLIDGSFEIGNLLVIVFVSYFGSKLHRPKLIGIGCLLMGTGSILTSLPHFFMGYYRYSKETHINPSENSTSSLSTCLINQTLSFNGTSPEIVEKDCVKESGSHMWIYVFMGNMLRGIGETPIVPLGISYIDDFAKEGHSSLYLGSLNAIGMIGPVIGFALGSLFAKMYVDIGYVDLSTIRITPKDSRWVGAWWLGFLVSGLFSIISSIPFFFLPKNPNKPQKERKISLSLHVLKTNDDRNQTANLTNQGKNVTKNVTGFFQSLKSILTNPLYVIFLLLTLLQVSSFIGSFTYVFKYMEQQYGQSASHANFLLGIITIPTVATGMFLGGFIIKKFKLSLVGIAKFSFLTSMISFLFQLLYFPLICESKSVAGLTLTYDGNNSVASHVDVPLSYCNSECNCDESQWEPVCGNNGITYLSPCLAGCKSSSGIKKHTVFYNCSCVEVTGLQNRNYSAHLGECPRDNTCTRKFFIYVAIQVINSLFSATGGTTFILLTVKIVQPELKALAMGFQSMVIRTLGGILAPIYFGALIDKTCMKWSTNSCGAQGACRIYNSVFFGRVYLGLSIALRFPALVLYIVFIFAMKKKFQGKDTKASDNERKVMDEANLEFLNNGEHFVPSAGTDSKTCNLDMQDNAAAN

OATP1B1 = molecular target: T2, OATP1B1 (Homo sapiens, UniProt Q9Y6L6); assay: OATP1B1 uptake substrate assay
T2 sequence (Q9Y6L6 1-691): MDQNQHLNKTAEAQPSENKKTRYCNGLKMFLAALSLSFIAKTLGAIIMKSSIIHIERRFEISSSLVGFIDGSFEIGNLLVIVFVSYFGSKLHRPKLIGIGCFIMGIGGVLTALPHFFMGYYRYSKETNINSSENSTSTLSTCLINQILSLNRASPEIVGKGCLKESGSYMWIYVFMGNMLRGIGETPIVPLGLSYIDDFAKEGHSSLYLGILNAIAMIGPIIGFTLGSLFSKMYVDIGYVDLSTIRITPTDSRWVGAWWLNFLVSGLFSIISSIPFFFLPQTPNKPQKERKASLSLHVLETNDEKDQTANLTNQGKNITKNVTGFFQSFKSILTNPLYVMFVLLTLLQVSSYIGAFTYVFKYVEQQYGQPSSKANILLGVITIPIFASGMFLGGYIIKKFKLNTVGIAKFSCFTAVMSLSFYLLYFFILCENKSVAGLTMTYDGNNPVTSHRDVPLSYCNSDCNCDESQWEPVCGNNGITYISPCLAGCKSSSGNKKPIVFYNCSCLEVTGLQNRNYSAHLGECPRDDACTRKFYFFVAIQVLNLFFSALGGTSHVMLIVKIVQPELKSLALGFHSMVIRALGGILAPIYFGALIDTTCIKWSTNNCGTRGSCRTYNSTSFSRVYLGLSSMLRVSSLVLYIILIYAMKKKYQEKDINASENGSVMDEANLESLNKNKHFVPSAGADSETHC

BCRP = molecular target: T3, BCRP (Homo sapiens, UniProt Q9UNQ0); assay: BCRP vesicular transport inhibition assay
T3 sequence (Q9UNQ0 1-655): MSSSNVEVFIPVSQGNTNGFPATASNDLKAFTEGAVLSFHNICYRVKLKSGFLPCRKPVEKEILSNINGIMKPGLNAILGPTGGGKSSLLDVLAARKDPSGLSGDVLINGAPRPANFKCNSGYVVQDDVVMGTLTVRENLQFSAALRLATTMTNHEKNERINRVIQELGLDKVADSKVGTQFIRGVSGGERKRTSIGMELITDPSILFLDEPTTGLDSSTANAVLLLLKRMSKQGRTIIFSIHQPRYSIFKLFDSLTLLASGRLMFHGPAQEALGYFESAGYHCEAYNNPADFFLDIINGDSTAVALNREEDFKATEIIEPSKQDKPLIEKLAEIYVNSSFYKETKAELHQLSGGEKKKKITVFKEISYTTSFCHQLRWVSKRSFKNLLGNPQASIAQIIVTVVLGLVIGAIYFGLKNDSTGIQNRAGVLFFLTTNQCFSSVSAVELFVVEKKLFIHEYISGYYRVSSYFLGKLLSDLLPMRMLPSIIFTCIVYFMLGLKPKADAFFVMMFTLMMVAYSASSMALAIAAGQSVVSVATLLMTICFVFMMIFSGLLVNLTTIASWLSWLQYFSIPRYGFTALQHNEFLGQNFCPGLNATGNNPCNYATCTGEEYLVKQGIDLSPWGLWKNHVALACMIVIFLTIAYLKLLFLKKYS

MATE2-K = MATE2-K (Homo sapiens, UniProt Q86VL8); assay: MATE2-K uptake inhibition assay; conditions: at 40 µM
CYP1A2 = molecular target: T4, CYP1A2 (Homo sapiens, UniProt P05177)
T4 sequence (P05177 1-516): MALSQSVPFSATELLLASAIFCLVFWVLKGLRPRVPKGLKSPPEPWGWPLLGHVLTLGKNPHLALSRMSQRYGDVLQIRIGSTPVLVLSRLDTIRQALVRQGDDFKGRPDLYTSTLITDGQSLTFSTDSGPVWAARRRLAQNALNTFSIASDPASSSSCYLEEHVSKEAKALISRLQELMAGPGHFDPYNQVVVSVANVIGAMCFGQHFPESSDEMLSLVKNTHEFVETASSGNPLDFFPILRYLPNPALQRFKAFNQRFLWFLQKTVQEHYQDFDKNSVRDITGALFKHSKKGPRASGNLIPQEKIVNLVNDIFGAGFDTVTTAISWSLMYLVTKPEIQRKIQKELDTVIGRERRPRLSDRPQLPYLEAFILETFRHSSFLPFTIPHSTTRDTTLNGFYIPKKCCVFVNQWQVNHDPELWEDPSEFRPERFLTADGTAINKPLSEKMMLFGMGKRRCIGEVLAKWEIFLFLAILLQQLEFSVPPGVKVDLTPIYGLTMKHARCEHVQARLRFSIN

[1] = transporter-expressing vs control cells, 0.04–40 µm

Sequence of MATE2-K (Q86VL8 1-566 isoform Q86VL8-3): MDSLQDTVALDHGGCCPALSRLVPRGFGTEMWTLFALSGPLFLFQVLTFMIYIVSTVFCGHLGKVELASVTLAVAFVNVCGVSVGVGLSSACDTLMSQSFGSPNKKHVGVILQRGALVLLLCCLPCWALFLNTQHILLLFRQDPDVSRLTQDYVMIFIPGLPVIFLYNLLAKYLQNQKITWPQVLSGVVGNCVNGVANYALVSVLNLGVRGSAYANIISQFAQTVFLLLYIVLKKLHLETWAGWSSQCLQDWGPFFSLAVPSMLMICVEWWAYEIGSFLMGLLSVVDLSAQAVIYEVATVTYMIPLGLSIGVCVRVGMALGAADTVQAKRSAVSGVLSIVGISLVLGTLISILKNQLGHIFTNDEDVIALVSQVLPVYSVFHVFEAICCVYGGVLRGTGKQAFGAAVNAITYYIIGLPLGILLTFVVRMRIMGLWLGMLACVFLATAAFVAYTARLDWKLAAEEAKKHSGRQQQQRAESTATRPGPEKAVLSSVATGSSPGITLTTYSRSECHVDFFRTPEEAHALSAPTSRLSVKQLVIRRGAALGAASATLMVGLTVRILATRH

## N#Cc1ccc(N2N=C3c4ccc(C(=O)N5CCC(O)CC5)nc4CC[C@@H]3[C@@H]2C2CCCC2)cc1Cl [Ocedurenone, ocedurenone]
OATP1B3
  Substrate, OATP1B3 UPT: not likely to be a substrate
OATP1B3; [1]
  Maximum fold accumulation, OATP1B3 UPT: 1.1
OATP1B1
  Substrate, OATP1B1 UPT: not likely to be a substrate
OATP1B1; [1]
  Maximum fold accumulation, OATP1B1 UPT: 1.0
BCRP; first vesicular transport run, 40 µM
  inhibition of BCRP at 40 µM: 98%
BCRP; repeat with 7 concentrations, at 40 µm
  maximum inhibition of BCRP-mediated transport: 98%
MATE2-K
  maximum inhibition of MATE2-K-mediated probe substrate accumulation: 79%
CYP1A2; ocedurenone at 200 μM
  percent remaining activity of CYP1A2: 92.9%
CYP1A2; read-out: IC50 CYP1A2, recombinant CYP
  IC50: > 200 µM
CYP1A2; recombinant enzyme
  inhibition category CYP1A2: little or no inhibition
